Measurements as given in paper PMC6099940, “Design, Synthesis and Biological Evaluation of Novel Phenylsulfonylurea Derivatives as PI3K/mTOR Dual Inhibitors” (Molecules : A Journal of Synthetic Chemistry and Natural …, 2018).
Read-outs that look alike come from different tables or passages of the source.

Key:
[1] = tested on: HepG-2; assay: In vitro cytotoxicity, MTT assay, HepG-2; format: cell-based; settings: 72 h, average of two separate determinations
[2] = molecular target: PI3Kα (Homo sapiens, UniProt P42336); assay: PI3Kα kinase assay (Kinase-Glo Luminescent Kinase Assay); format: biochemical; settings: 1 µM ATP, 60 min, average of two determinations
Sequence of PI3Kα (P42336 whole entry): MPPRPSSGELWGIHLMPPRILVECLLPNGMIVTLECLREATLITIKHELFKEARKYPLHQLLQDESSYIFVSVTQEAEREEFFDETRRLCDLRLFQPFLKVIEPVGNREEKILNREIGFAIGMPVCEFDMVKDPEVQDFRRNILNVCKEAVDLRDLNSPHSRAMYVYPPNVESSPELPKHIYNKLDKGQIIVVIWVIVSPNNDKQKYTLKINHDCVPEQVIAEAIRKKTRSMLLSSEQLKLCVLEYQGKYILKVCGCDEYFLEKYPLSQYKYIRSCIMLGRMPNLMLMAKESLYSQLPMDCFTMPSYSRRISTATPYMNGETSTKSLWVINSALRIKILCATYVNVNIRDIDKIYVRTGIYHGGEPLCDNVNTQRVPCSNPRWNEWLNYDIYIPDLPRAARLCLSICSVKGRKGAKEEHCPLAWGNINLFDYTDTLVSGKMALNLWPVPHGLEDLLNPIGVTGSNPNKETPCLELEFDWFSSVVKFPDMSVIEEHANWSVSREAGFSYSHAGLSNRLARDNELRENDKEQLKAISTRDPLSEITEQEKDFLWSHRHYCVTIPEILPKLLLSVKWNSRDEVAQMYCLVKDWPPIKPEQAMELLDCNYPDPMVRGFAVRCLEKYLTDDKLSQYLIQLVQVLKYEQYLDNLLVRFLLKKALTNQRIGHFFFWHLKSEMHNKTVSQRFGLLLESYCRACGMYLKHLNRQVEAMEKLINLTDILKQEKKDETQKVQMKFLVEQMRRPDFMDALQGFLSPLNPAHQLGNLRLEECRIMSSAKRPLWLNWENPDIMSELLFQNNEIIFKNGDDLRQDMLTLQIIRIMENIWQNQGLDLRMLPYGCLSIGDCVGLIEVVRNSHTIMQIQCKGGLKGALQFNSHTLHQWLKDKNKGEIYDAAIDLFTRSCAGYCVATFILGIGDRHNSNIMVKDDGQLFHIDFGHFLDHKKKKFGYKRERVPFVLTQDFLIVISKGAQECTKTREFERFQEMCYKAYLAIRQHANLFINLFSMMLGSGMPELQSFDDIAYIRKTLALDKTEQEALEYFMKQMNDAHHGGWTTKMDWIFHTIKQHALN
Sequence of PI3Kα (P27986 whole entry partner): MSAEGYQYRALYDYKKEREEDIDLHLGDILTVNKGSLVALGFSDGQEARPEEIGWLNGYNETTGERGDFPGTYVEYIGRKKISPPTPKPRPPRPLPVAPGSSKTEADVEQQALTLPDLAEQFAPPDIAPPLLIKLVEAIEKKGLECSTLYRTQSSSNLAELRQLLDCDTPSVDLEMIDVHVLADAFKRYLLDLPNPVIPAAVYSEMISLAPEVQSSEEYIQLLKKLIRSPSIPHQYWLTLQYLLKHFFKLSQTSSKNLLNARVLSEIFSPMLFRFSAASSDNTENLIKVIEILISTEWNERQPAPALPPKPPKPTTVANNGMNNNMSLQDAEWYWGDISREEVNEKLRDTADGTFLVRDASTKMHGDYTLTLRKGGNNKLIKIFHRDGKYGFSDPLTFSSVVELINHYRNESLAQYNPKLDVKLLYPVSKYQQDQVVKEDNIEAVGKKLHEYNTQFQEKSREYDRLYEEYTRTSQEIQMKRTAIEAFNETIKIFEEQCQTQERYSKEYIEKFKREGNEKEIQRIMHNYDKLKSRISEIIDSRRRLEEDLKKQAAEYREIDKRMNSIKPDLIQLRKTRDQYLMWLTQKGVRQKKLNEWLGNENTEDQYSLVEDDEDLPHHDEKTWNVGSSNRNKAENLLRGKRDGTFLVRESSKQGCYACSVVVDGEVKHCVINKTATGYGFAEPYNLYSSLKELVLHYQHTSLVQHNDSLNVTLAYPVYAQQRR

[3] = tested on: A549; assay: In vitro cytotoxicity, MTT assay, A549; format: cell-based; settings: A549 cells, 72 h, average of two separate determinations
[4] = molecular target: mTOR (Homo sapiens, UniProt P42345); assay: mTOR kinase assay (Kinase-Glo Luminescent Kinase Assay); format: biochemical; settings: 10 µM ATP, 60 min, average of two determinations
[5] = tested on: PC-3; assay: In vitro cytotoxicity, MTT assay, PC-3; format: cell-based; settings: PC-3 cells, 72 h, average of two separate determinations
[6] = tested on: MCF-7; assay: In vitro cytotoxicity, MTT assay, MCF-7; format: cell-based; settings: MCF-7 cells
[7] = Homo sapiens, HepG2, HepG-2 cells
[8] = Homo sapiens, MCF7, MTT, 72 h, average of two separate determinations, read-out: IC50 (µM) MCF-7

| SMILES | IC50 ([1]; HepG-2 cells) [µM] | IC50 [2] [µM] | IC50 [3] [µM] | IC50 [4] [µM] | IC50 [5] [µM] | IC50 ([6]; MTT, 72 h, average of two separate determinations, read-out: IC50 (µM) MCF-7) [µM] | IC50 ([6]; read-out: IC50 value against MCF-7 cell (conclusions text, unit inferred)) [µM] | IC50 [1, 7] [µM] | melting point [°C] | IC50 ([3]; Homo sapiens) [µM] | IC50 ([5]; Homo sapiens) [µM] | IC50 [6, 8] [µM] |
| --- | --- | --- | --- | --- | --- | --- | --- | --- | --- | --- | --- | --- |
| CC(C)(C#N)c1ccc(Nc2c(NC(=O)NS(=O)(=O)c3ccc(F)cc3)cnc3ccc(Br)cc23)cc1 [19a, N-((6-Bromo-4-((4-(2-cyanopropan-2-yl)phenyl)amino)quinolin-3-yl)carbamoyl)-4-fluorobenzenesulfonamide carboxamide] | 33.3 ± 1.52 | 0.72 | 38.5 ± 1.04 | 2.62 | 66.6 ± 1.28 | 3.88 ± 0.58 | 2.88 ± 0.58 |  |  |  |  |  |
| CC(C)(C#N)c1ccc(Nc2c(NC(=O)NS(=O)(=O)c3ccc(Cl)cc3)cnc3ccc(Br)cc23)cc1 [19b, N-((6-Bromo-4-((4-(2-cyanopropan-2-yl)phenyl)amino)quinolin-3-yl)carbamoyl)-4-chlorobenzenesulfonamide] |  |  |  |  |  |  |  | 30.2 ± 1.45 | 279.2 to 280.1 | > 100 | 34.3 ± 1.32 | 15.1 ± 1.1 |
| Cc1ccc(S(=O)(=O)NC(=O)Nc2cnc3ccc(Br)cc3c2Nc2ccc(C(C)(C)C#N)cc2)cc1 [19c, N-((6-Bromo-4-((4-(2-cyanopropan-2-yl)phenyl)amino)quinolin-3-yl)carbamoyl)-4-methylbenzenesulfonamide] |  |  |  |  |  |  |  | 31.2 ± 1.5 | 289.2 to 290.4 | 29 ± 1.31 | 40.6 ± 1.11 | 3.96 ± 0.59 |
| CC(C)(C)c1ccc(S(=O)(=O)NC(=O)Nc2cnc3ccc(Br)cc3c2Nc2ccc(C(C)(C)C#N)cc2)cc1 [19d, N-((6-Bromo-4-((4-(2-cyanopropan-2-yl)phenyl)amino)quinolin-3-yl)carbamoyl)-4-(tert-butyl)benzenesulfonamide] |  |  |  |  |  |  |  | > 100 | 287.2 to 288.4 | 30.6 ± 1.45 | 68.2 ± 1.32 | 9.95 ± 0.99 |
| COc1ccc(Nc2c(NC(=O)NS(=O)(=O)c3ccc(F)cc3)cnc3ccc(Br)cc23)cc1 [20a, N-((6-Bromo-4-((4-methoxyphenyl)amino)quinolin-3-yl)carbamoyl)-4-fluorobenzenesulfonamide] |  |  |  |  |  |  |  | 20.3 ± 1.04 | 289.1 to 290.2 | 26.3 ± 1.13 | > 100 | 7.65 ± 0.88 |
| COc1ccc(Nc2c(NC(=O)NS(=O)(=O)c3ccc(Cl)cc3)cnc3ccc(Br)cc23)cc1 [20b, N-((6-Bromo-4-((4-methoxyphenyl)amino)quinolin-3-yl)carbamoyl)-4-chlorobenzenesulfonamide] |  |  |  |  |  |  |  | 22.6 ± 1.12 | 282.2 to 283.1 | 30.2 ± 1.23 | > 100 | 10.7 ± 0.97 |
| COc1ccc(Nc2c(NC(=O)NS(=O)(=O)c3ccc(C)cc3)cnc3ccc(Br)cc23)cc1 [20c, N-((6-Bromo-4-((4-methoxyphenyl)amino)quinolin-3-yl)carbamoyl)-4-methylbenzenesulfonamide] |  |  |  |  |  |  |  | 26.8 ± 1.22 | 279.2 to 280.6 | 23.4 ± 1.12 | > 100 | 4.94 ± 0.64 |
| COc1ccc(Nc2c(NC(=O)NS(=O)(=O)c3ccc(C(C)(C)C)cc3)cnc3ccc(Br)cc23)cc1 [20d, N-((6-Bromo-4-((4-methoxyphenyl)amino)quinolin-3-yl)carbamoyl)-4-(tert-butyl)benzenesulfonamide] |  |  |  |  |  |  |  | 33.2 ± 1.26 | 263.3 to 264.2 | 32.1 ± 1.18 | > 100 | 10.5 ± 0.98 |
| O=C(Nc1cnc2ccc(Br)cc2c1Nc1ccc(Br)cc1)NS(=O)(=O)c1ccc(F)cc1 [21a, N-((6-Bromo-4-((4-bromophenyl)amino)quinolin-3-yl)carbamoyl)-4-fluorobenzenesulfonamide] |  |  |  |  |  |  |  | 45.7 ± 1.66 | 278.7 to 279.5 | 59 ± 1.76 | > 100 | 37.6 ± 1.57 |
| O=C(Nc1cnc2ccc(Br)cc2c1Nc1ccc(Br)cc1)NS(=O)(=O)c1ccc(Cl)cc1 [21b, N-((6-Bromo-4-((4-bromophenyl)amino)quinolin-3-yl)carbamoyl)-4-chlorobenzenesulfonamide] |  |  |  |  |  |  |  | 11.1 ± 1.04 | 284.1 to 285.4 | 71.1 ± 1.85 | > 100 | 13.8 ± 1.14 |
| Cc1ccc(S(=O)(=O)NC(=O)Nc2cnc3ccc(Br)cc3c2Nc2ccc(Br)cc2)cc1 [21c, N-((6-Bromo-4-((4-bromophenyl)amino)quinolin-3-yl)carbamoyl)-4-methylbenzenesulfonamide] |  |  |  |  |  |  |  | 31.1 ± 1.49 | 279.6 to 280.2 | 22.7 ± 1.35 | > 100 | 16.6 ± 1.22 |
| CC(C)(C)c1ccc(S(=O)(=O)NC(=O)Nc2cnc3ccc(Br)cc3c2Nc2ccc(Br)cc2)cc1 [21d, N-((6-Bromo-4-((4-bromophenyl)amino)quinolin-3-yl)carbamoyl)-4-(tert-butyl)benzenesulfonamide] |  |  |  |  |  |  |  | 17 ± 1.22 | 259.4 to 260.3 | 16.2 ± 1.2 | > 100 | 52.7 ± 1.72 |
| O=C(Nc1cnc2ccc(Br)cc2c1Nc1ccc(F)c(Cl)c1)NS(=O)(=O)c1ccc(F)cc1 [22a, N-((6-Bromo-4-((3-chloro-4-fluorophenyl)amino)quinolin-3-yl)carbamoyl)-4-fluorobenzenesulfonamide] |  |  |  |  |  |  |  | 19.63 ± 0.18 | 295.1 to 296.3 | 12 ± 0.91 | 52.5 ± 1.03 | 22.8 ± 1.35 |
| O=C(Nc1cnc2ccc(Br)cc2c1Nc1ccc(F)c(Cl)c1)NS(=O)(=O)c1ccc(Cl)cc1 [22b, N-((6-Bromo-4-((3-chloro-4-fluorophenyl)amino)quinolin-3-yl)carbamoyl)-4-chlorobenzenesulfonamide] |  |  |  |  |  |  |  | 6.44 ± 0.89 | 282.3 to 283.7 | > 100 | 17.7 ± 0.95 | 6.84 ± 0.83 |
| Cc1ccc(S(=O)(=O)NC(=O)Nc2cnc3ccc(Br)cc3c2Nc2ccc(F)c(Cl)c2)cc1 [22c, N-((6-Bromo-4-((3-chloro-4-fluorophenyl)amino)quinolin-3-yl)carbamoyl)-4-methylbenzenesulfonamide] |  |  |  |  |  |  |  | 11.3 ± 0.84 | 278.7 to 279.9 | > 100 | 16.7 ± 0.88 | 16.8 ± 1.22 |
| CC(C)(C)c1ccc(S(=O)(=O)NC(=O)Nc2cnc3ccc(Br)cc3c2Nc2ccc(F)c(Cl)c2)cc1 [22d, N-((6-Bromo-4-((3-chloro-4-fluorophenyl)amino)quinolin-3-yl)carbamoyl)-4-(tert-butyl)benzenesulfonamide] |  |  |  |  |  |  |  | 28.4 ± 0.89 | 290.1 to 291.6 | 22.4 ± 1.21 | 29.3 ± 2.23 | 46.3 ± 1.67 |
| COc1ccc(Nc2c(NC(=O)NS(=O)(=O)c3ccc(Cl)cc3)c(C)nc3ccc(OC)cc23)cc1 [23a, 4-Chloro-N-((6-methoxy-4-((4-methoxyphenyl)amino)-2-methylquinolin-3-yl)carbamoyl)benzenesulfonamide] |  |  |  |  |  |  |  | 16 ± 1.1 | 290.8 to 291.2 | 39.8 ± 1.59 | > 100 | 6.3 ± 0.79 |
| COc1ccc(Nc2c(NC(=O)NS(=O)(=O)c3ccc(C(C)(C)C)cc3)c(C)nc3ccc(OC)cc23)cc1 [23b, 4-(tert-Butyl)-N-((6-methoxy-4-((4-methoxyphenyl)amino)-2-methylquinolin-3-yl)carbamoyl)benzenesulfonamide] |  | > 10 |  | > 10 |  |  |  | 2.71 ± 0.43 | 291.2 to 292.7 | 7.47 ± 0.87 | > 100 | 6.55 ± 0.81 |
| COc1ccc2nc(C)c(NC(=O)NS(=O)(=O)c3ccc(F)cc3)c(Nc3ccc(Br)cc3)c2c1 [23c, N-((4-((4-Bromophenyl)amino)-6-methoxy-2-methylquinolin-3-yl)carbamoyl)-4-fluorobenzenesulfonamide] |  |  |  |  |  |  |  | 32.1 ± 1.12 | 356.1 to 357.3 | 13 ± 0.84 | 39.8 ± 1.25 | 25.4 ± 1.43 |
| COc1ccc2nc(C)c(NC(=O)NS(=O)(=O)c3ccc(F)cc3)c(Nc3ccc(F)c(Cl)c3)c2c1 [23d, N-((4-((3-Chloro-4-fluorophenyl)amino)-6-methoxy-2-methylquinolin-3-yl)carbamoyl)-4-fluorobenzenesulfonamide] |  |  |  |  |  |  |  | 6.08 ± 1.04 | 285.3 to 286.1 | 38.1 ± 0.96 | 57.9 ± 0.99 | 57 ± 1.75 |
| Cn1c(=O)n(-c2ccc(C(C)(C)C#N)cc2)c2c3cc(-c4cnc5ccccc5c4)ccc3ncc21 [NVP-BEZ235, reference compound] |  |  |  |  |  |  |  | 0.54 ± 0.83 |  | 0.36 ± 0.86 | 0.2 ± 0.11 | 0.14 ± 0.1 |
